Results taken from patent publication US20180320128A1, “METHODS FOR MODULATING PRODUCTION PROFILES OF RECOMBINANT PROTEINS” (ARES TRADING S.A., priority 2015, published 2018).

Key:
[1] = tested on: mAb2 cells (CHO-K1 cells expressing IgG1 mAb2); test: Fed-batch culture in deep-well plates, 0 or 30 mM raffinose with increasing osmolality (experimental approach 2); type: cell-based, Chinese hamster
Procedure: (§1) Assays were performed with two CHO cell lines: • CHO-S cells expressing IgG1 mAb1, herein “Cells mAb1” or “mAb1 cells”. “mAb1” is a fully human monoclonal antibody directed against a soluble protein. Its isoelectric point (pI) is about 8.20-8.30. • CHO-K1 cells expressing IgG1 mAb2, herein “Cells mAb2” or “mAb2 cells”. “mAb2” is a humanized monoclonal antibody directed against a receptor found on the cell membrane. Its isoelectric point (pI) is about 9.30.
(§2) Deepwell plates: Cells expressing mAb2 were inoculated at 0.2×10^6 cells per millilitre (mL), whereas cells expressing mAb1 were inoculated at 0.3×10^6 cells per mL.
(§3) All assays were performed in fed-batch culture.
(§4) A serum-free chemically defined culture medium was used. It was used as it is (o be adapted), or it was supplemented with D-(+)-Raffinose pentahydrate (Sigma-Aldrich, 83400-25G) at different concentrations (0-45 mM). The culture medium was fed, on a regular basis, with a chemically defined feed medium, as well as with glucose in order to keep said glucose level in the range of >0 to about 8 g/L.
(§5) The cultures were performed: • In deepwell plates with a working volume of 450 μL. They were incubated at 36.5° C., 5% de CO2, 90% humidity and shaken at 320 rpm. Each of the fed-batch culture lasted 14 days. • In Spin Tubes (ST) with a working volume of 30 mL (with as permable lid). They were inoculated with a cell density of 0.3*10^6 cells/mL and maintained at 36.5° C., 320 rpm, 5% CO2 and 90% humidity for 14 days.
(§6) Viable cell density and viability were measured with the Guava easyCyte® flow cytometer.
(§7) Antibody titers were measured with the fortéBIO Octet®.
(§8) Glycosylation profiles were established by capillary gel electrophoresis with laser-induced fluorescence (CGE-LIF). Groups of glycans were defined as thereafter in Table 2.
(§9) Stock solutions were prepared with media to prevent dilution. The given concentrations equal the concentrations in media before incoculation. CHO-S cells (=mAb1 cells) expressing mAb1 were expanded for 49 days, CHO-K1 (=mAb2 cells) expressing mAb2 were expanded for 28 days.
The second experimental approach was performed with increasing osmolality and constant sugar concentrations (see table 3 and methods in example 1).

[2] = tested on: mAb1 cells (CHO-S cells expressing IgG1 mAb1); test: Fed-batch culture in 96 deep-well plates, constant osmolality (315 mOsm/kg), increasing sugar concentration (experimental approach 1); type: cell-based, Chinese hamster; conditions: for increase of High Mannose (HM) species of mAb1 with respect to control: absolute change; for cell growth with increasing sugar concentration: 0-127.5 mM; for increase of HM for mAb1 (overall conclusion): constant osmolality, concentration not given
Procedure: as §1, §2, §3, §4, §5, §6, §7, §8
(§10) Experiment was performed to check whether high osmolality or high sugar concentration have an influence on the viability of the cells, VCD as well as on amount of High Mannose (HM) species. A chemically defined proprietary medium with lower osmolality (PM-200) compared to standard media, was used to vary sugar concentrations from 1-150 mM (green) while maintaining the osmolality of standard media (315 mOsm/kg) via supplementation with NaCl (blue), as illustrated in FIG. 1. Standard media and PM-200 differ in the composition, so the missing amounts of raw material were added (except NaCl). As sugars raffinose (a trisaccharide) and sucrose (a disaccharide) were chosen. Stock solutions (raffinose 22 mM, raffinose 220 mM, sucrose 50 mM, sucrose 1 M and NaCl 1 M) were prepared and added to the media before inoculation.
as §9

[3] = tested on: mAb2 cells (CHO-K1 cells expressing IgG1 mAb2); test: as above; type: cell-based, Chinese hamster; conditions: for increase of High Mannose (HM) species of mAb2 with respect to control: absolute change; for increase of HM for mAb2 (overall conclusion): constant osmolality, concentration not given
Procedure: as §1, §2, §3, §4, §5, §6, §7, §8, §10, §9

[4] = tested on: mAb1 cells (CHO-S cells expressing IgG1 mAb1); test: Fed-batch culture in Spin Tubes, constant osmolality (315 mOsm/kg), increasing raffinose concentration; type: cell-based, Chinese hamster
Procedure: as §1
Spintubes: Cells expressing both mAb1 and mAb2 were inoculated at 0.3×10^6 cells per mL.
as §3, §4, §5
Glycosylation profiles were established by capillary gel electrophoresis with laser-induced fluorescence (CGE-LIF). Groups of glycans were defined as thereafter in Table 2. […]
A second experiment with constant osmolality (315 mOsm/kg) and increasing raffinose concentration was performed in Spin Tubes with a working volume of 30 mL and mAb1 cells. FIG. 10a depicts VCD and viability from mAb1 cells of the experimental approach with constant osmolality and increasing raffinose concentration in Spin Tubes. […] The lowest VCD was obtained at 100 mM raffinose (10.2±0.2*10^6 cells/mL), as illustrated in FIG. 10b.

recombinant CHO cells = conditions: cited from earlier work
[5] = 425 mOsm/kg with 30 mM raffinose
[6] = 1 mM sugar in medium, 315 mOsm/kg, 14-day culture
[7] = 5 mM sugar, 315 mOsm/kg, working day 14
[8] = 100 mM sugar, 315 mOsm/kg, working day 14
[9] = 100 mM raffinose, Spin Tubes, absolute change
[10] = 80 mM sugar, 315 mOsm/kg, working day 14
[11] = 127.5 mM sugar, 315 mOsm/kg, working day 14
[12] = 50 mM sugar, 315 mOsm/kg, working day 14

## OC[C@H]1O[C@H](OC[C@H]2O[C@H](O[C@]3(CO)O[C@H](CO)[C@@H](O)[C@@H]3O)[C@H](O)[C@@H](O)[C@@H]2O)[C@H](O)[C@@H](O)[C@H]1O [raffinose, O-α-D-Galactopyranosyl-(1→6)-α-D-g lucopyranosyl-(1→2)-β-D-fructofuranoside]
[1]; 375 mOsm/kg and 30 mM raffinose
  viability at the end of the experiment: about 59%
[1]; 425 mOsm/kg and 30 mM raffinose, working day 14
  absolute harvest titer: about 1150 mg/L
[1]; [5]
  increase of HM species of mAb2 with respect to control (315 mOsm/kg): 8.5%
  maximum VCD (lowest of the conditions): 8.2±2.3 *10^6 cells/mL
[2]; [6]
  maximum cell concentration (VCD): 16.2±1.0 *10^6 cells/mL
[2]; [7]
  cell viability: about 57%
[2]; 10 mM sugar, 315 mOsm/kg, working day 14
  absolute harvest titer: about 2650 mg/L
[2]; 50 mM sugar, 315 mOsm/kg
  increase of High Mannose (HM) species of mAb1 with respect to control: 6.8%
[2]; 100 mM sugar in medium, 315 mOsm/kg
  maximum cell concentration (VCD): 2.3±2.1 *10^6 cells/mL
[2]; [8]
  specific productivity: about 45 pg/cell/day
[2]; 1-65 mM sugar, 315 mOsm/kg, working day 14
  product titer compared to control: higher product titer than control
[2]; 80-127.5 mM sugar, 315 mOsm/kg, working day 14
  absolute harvest titer: 825 to 975 mg/L
[2]; 315 mOsm/kg
  change of fucosylated species of mAb1 with increasing sugar concentration: decrease
  change of galactosylated, HM and non-fucosylated species of mAb1 with increasing sugar concentration: increase
  cell growth with increasing sugar concentration: inhibited
[2]; 315 mOsm/kg, working day 14
  specific productivity with increasing sugar concentration: increased
[2]
  increase of HM for mAb1 (overall conclusion): 7%
[3]; 5 mM sugar, 315 mOsm/kg
  maximum cell concentration (VCD): 11.85±1.1 *10^6 cells/mL
[3]; 80 mM sugar, 315 mOsm/kg
  maximum VCD (lowest of the conditions): 6.4±1.7 *10^6 cells/mL
[3]; 100 mM sugar, 315 mOsm/kg
  specific productivity: about 30 pg/cell/day
  increase of High Mannose (HM) species of mAb2 with respect to control: 6.3%
[3]; [8]
  harvest titer: about 2350 mg/L
[3]; 315 mOsm/kg
  cell growth with increasing sugar concentration: reduced
  change of fucosylated species of mAb2 with higher sugar concentration: decrease
  change of galactosylated, HM and non-fucosylated species of mAb2 with higher sugar concentration: increase
[3]
  increase of HM for mAb2 (overall conclusion): 6%
[4]; 10 mM raffinose, Spin Tubes, n=2
  maximum cell concentration (VCD): 17.8±0.2 *10^6 cells/mL
[4]; 10 mM raffinose, working day 14, Spin Tubes
  concentration of antibodies (harvest titer): about 2200 mg/L
[4]; 100 mM raffinose, Spin Tubes
  increase of productivity versus control: about 64%
  productivity per cell per day (PCD), peak: about 23 pg/cell/day
  viability at the end of cultivation: about 86%
[4]; [9]
  decrease of fucosylated glycans of mAb1 with respect to control: 15.9%
  increase of Man5 of mAb1 with respect to control: 7.7%
[4]; 100 mM raffinose, Spin Tubes, n=2
  maximum VCD (lowest of the conditions): 10.2±0.2 *10^6 cells/mL
[4]; Spin Tubes, data not shown
  acid isoforms and amount of aggregates with increasing raffinose concentration: increased
  amount of alkaline isoforms with increasing raffinose concentration: decreased
[4]; raffinose supplementation, Spin Tubes
  absolute change of unknown, galactosylated and sialylated glycoforms: not affected
[4]; supplemented raffinose (10-100 mM), Spin Tubes
  absolute harvest titer compared to control: higher than the control

## CCCC(=O)[O-].[Na+] [sodium butyrate]
Recombinant CHO cells; batch culture, after 8 days of culture
  cell viability at the end of the production run: less than 45%
Recombinant CHO cells; perfusion batch culture, within 6 days of treatment
  cell viability: 15%

## OC[C@H]1O[C@@](CO)(O[C@H]2O[C@H](CO)[C@@H](O)[C@H](O)[C@H]2O)[C@@H](O)[C@@H]1O [sucrose, α-D-glucopyranosyl-(1→2)-β-D-fructofuranoside]
[2]; [6]
  maximum cell concentration (VCD): 18.2±1.7 *10^6 cells/mL
[2]; 1 mM sugar, 315 mOsm/kg, working day 14
  absolute harvest titer: about 2800 mg/L
[2]; [10]
  absolute harvest titer: ~2550 mg/L
  specific productivity: about 26 pg/cell/day
[2]; 100 mM sugar, 315 mOsm/kg
  increase of High Mannose (HM) species of mAb1 with respect to control: 14.2%
[2]; 127 mM (maximum tested) sugar, 315 mOsm/kg
  maximum cell concentration (VCD): 9.6±3.2 *10^6 cells/mL
[2]; 127.5 mM sugar, 315 mOsm/kg
  increase of High Mannose (HM) species of mAb1 with respect to control: 14.3%
[2]; [11]
  cell viability: ~64%
[2]; 315 mOsm/kg
  change of fucosylated species of mAb1 with increasing sugar concentration: decrease
  change of galactosylated, HM and non-fucosylated species of mAb1 with increasing sugar concentration: increase
  cell growth with increasing sugar concentration: inhibited
[2]; 315 mOsm/kg, working day 14
  specific productivity with increasing sugar concentration: no change
[2]
  increase of HM for mAb1 (overall conclusion): 14%
[3]; [7]
  absolute harvest titer: about 700 mg/L
[3]; 10 mM sugar, 315 mOsm/kg
  maximum cell concentration (VCD): 11.1±1.6 *10^6 cells/mL
[3]; [12]
  absolute harvest titer: about 2100 mg/L
  specific productivity: about 21 pg/cell/day
[3]; 100 mM sugar, 315 mOsm/kg
  increase of High Mannose (HM) species of mAb2 with respect to control: 6.0%
[3]; 127.5 mM sugar, 315 mOsm/kg
  maximum VCD (lowest of the conditions): 6.9±1.1 *10^6 cells/mL
  increase of High Mannose (HM) species of mAb2 with respect to control: 9.1%
[3]; [11]
  specific productivity: about 24 pg/cell/day
[3]; 315 mOsm/kg
  change of fucosylated species of mAb2 with higher sugar concentration: decrease
  change of galactosylated, HM and non-fucosylated species of mAb2 with higher sugar concentration: increase
[3]
  increase of HM for mAb2 (overall conclusion): 9%
[3]; sugar supplementation, 315 mOsm/kg, working day 14
  production of antibodies with respect to control: decrease
